According to patent US20060013804A1, “Modulation of stem cell differentiation by modulation of caspase-3 activity” (Ottawa Health Research Institute, priority 2002, published 2006):

Key:
Type in all cases: cell-based, mouse
PARP cleavage = PARP cleavage by Western blot in differentiating C2C12 myoblasts; conditions: C2C12, treated vs untreated
Description: Protein isolation, immunoblot analyses and immunocytochemistry. Cells from C2C12 and primary myoblast cultures were washed with ice-cold PBS and lysed on ice for 45 minutes in modified-RIPA buffer containing 20 mM NaF, 5 mM Na3VO4 and 10 μg/ml each of aprotinin, leupeptin, pepstatin and PMSF. Total protein was measured using the BCA protein assay (Pierce). Immunoblot analyses were performed as described (Creasy, C. L., & Chernoff, J. (1995) J. Biol. Chem. 270, 21695-21700) using antibodies for MST1, MKK6, p38γ, and p38α (Upstate), p38 and MEF2C (Cell Signaling Technologies), myogenin F5D and myosin heavy chain MF20 mAb (Developmental Hybridoma Bank), and active caspase-3 (Biovision).
Cells were fixed after 0, 2 and 4 days of differentiation and stained with the myosin heavy chain antibody MF20. […] In contrast, differentiation was more evident in cells that were incubated with caspase-8 inhibitor, z-LETD.fmk (FIG. 2B bottom panel, C).

PAK1 = experiment: Immunoprecipitation/kinase assay of PAK1 from neurospheres; conditions: differentiation media, vs DMSO
Description: Immunoprecipitation/Kinase activity assays: Immunoprecipitation/kinase analyses were performed as previously described (Fernando, P., et al., (2002) Proc Natl Acad Sci USA 99, 11025-11030). Cellular lysates from neurospheres were generated as described above. Antibodies against apoptotic signal-regulating kinase 1 (ASK1) (Upstate, USA), p21 activated kinase 1 (PAK1) (Cell Signaling Technologies, USA), and p38 MAPK (Santa Cruz, USA) were used to immunoprecipitate respective proteins. Samples were mixed with Protein G-sepharose beads for 1 h, washed and then mixed with kinase assay buffer containing myelin basic protein (MBP) and γ-32P[ATP]. Samples were reacted at 30° C. for 30 min and separated using SDS-PAGE. In some instances, samples were transferred to PVDF membrane following electrophoresis. To quantify kinase activities, MBP acrylamide bands were excised and solubilized in scintillation fluid prior to 32P-liquid scintillation analyses. In all cases, an activated recombinant mitogen activated protein kinase activated protein-2 (MAPKAP kinase-2) (Upstate, USA) was used as an internal control for liquid scintillation analyses.
Caspase 3, when processed to its active form, is capable of targeting and activating many protein kinases that mediate cellular differentiation. […]

[1] = test system: endogenous kinases (MBP-directed cellular kinase activities); experiment: Two-dimensional in-gel kinase assay of C2C12 lysates with MBP as substrate; conditions: C2C12, 12 h low serum treatment with inhibitor, vs untreated
Description: Samples were subjected to in-gel kinase analyses as previously described (Kolodziejczyk, S. M., et al., (1999) Curr Biol 9, 1203-1206) using MBP or Histone H1 as the target substrate. For two-dimension in-gel kinase analyses, samples were isoelectric focused in the first dimension using pH 4.0-7.0 IPG strips (BioRad). Second dimension analyses was performed using 10% SDS-PAGE containing Histone H1 as the in-gel substrate. Additional in-gel kinase analyses was performed as above.
A two-dimensional in-gel kinase assay was employed using myelin basic protein (MBP) as a target substrate to identify protein kinases that may be targeted by caspase-3 activity. C2C12 cells were treated with caspase-3 inhibitor and total protein lysates were isoelectrically focused in the first dimension and then separated in the second dimension using MBP as the crosslinked substrate. […] Similar results were seen using histone H1 as the in-gel substrate.

SMILES: COC(=O)CC[C@H](NC(=O)[C@H](CC(=O)OC)NC(=O)OCc1ccccc1)C(=O)N[C@H](C(=O)N[C@@H](CC(=O)OC)C(=O)CF)C(C)C [z-DEVD.fmk]
- PARP cleavage products (PARP cleavage; listed as Z-DEVD.fmk): Comparable levels of PARP cleavage
- PARP cleavage products (PARP cleavage; listed as z-DEVD): accumulated to a similar degree
- PAK1 activity (PAK1): reduced
- activity of endogenous kinases (in-gel, MBP substrate) [1]: diminished level of activity
- activity of endogenous kinases (in-gel, MBP substrate) ([1]; listed as caspase-3 inhibitor): significant loss of MBP-directed cellular kinase activities
